Eight molecules from ChEMBL document CHEMBL1149950, “The synthesis and anti-hiv activity of pyrimidine dioxolanyl nucleosides” (Bioorg Med Chem Lett, 1993) can be followed below.

Assay [1] concerns MT4. In words: Tested in vitro for the cytotoxic activity against uninfected MT-4 cells. It is filed as functional, cell-based. Particulars: Homo sapiens.
Assay [2] is described as follows: Tested in vitro for the cytotoxic activity against uninfected human peripheral blood mononuclear (PBM) cells. It is filed as functional.
In assay [3] the test system is Vero. The assay is described as follows: Tested in vitro for the cytotoxic activity against uninfected Vero cells. The class given is functional, cell-based. Particulars: Chlorocebus sabaeus.
Assay [4] can be described thus: Tested in vitro for the antiviral assay in mitogen stimulated human peripheral blood mononuclear (PBM) cells infected with HIV-1 (strain LAV). It is filed as functional.
Assay [5] concerns MT4. The assay is described as follows: Tested in vitro for the cytotoxic activity against uninfected MT-4 cells at 200 uM. It is filed as functional. Conditions: Homo sapiens.
Assay [6] deals with CCRF-CEM. The assay is described as follows: Tested in vitro for the cytotoxic activity against uninfected CEM cells. It is filed as functional, cell-based. Particulars: Homo sapiens.

Broadly, the IC50 is the concentration at which inhibition is half-maximal. The EC50 is the concentration at which the effect is half-maximal. A lower EC50 goes with a more potent agent. Usually inhibition stands for the drop in the measured response relative to a control, in per cent. A low value points to a weak effect.

Where only a bound is given, the exact number is not on record here.

Regarding `O=c1[nH]c(=O)n([C@H]2CO[C@@H](CO)O2)cc1Br`, the IC50 was > 200 µM in assay [1], > 100 µM in assay [2] and > 100 µM in assay [3]. The molecule also yielded an EC50 in assay [4] of 2.8 µM.

Turning to `Nc1ccn([C@H]2CO[C@@H](CO)O2)c(=O)n1`, the IC50 in assay [2] was > 100 µM; in assay [3] it was 0.17 µM; in assay [6], 0.08 µM. The inhibition at 200 µM in assay [5] turned out to be 66%. Moreover, the EC50 in assay [4] stood at 0.005 µM.

Take `O=c1ccn([C@H]2CO[C@@H](CO)O2)c(=O)[nH]1`: the IC50 in assay [1] is > 200 µM; in assay [2] it was > 100 µM; in assay [3] it was > 100 µM. The molecule also displayed an EC50 in assay [4] of 57.5 µM.

Take `O=c1[nH]c(=O)n(C2COC(CO)O2)cc1Cl` (stereo not drawn): the IC50 in assay [1] is > 200 µM; in assay [2], > 100 µM; in assay [3] it was > 100 µM. In addition, in assay [4], the EC50 came out at 1.7 µM.

Turning to `O=c1[nH]c(=O)n(C2COC(CO)O2)cc1C(F)(F)F` (stereo not drawn), the figures for the IC50 in assay [1], in assay [2] and in assay [3] were > 200 µM, > 100 µM and > 100 µM, respectively. For the same molecule, the EC50 in assay [4] amounted to 93 µM.

As to `O=c1[nH]c(=O)n(C2COC(CO)O2)cc1I` (stereo not drawn), the results for the IC50 in assay [1], in assay [2] and in assay [3] were > 200 µM, > 100 µM and > 100 µM, respectively. Also, the EC50 in assay [4] was > 100 µM.

With `CCc1cn(C2COC(CO)O2)c(=O)[nH]c1=O` (stereo not drawn), the half-maximal inhibitory concentration (IC50) in assay [2] and in assay [3] was > 100 µM throughout. This molecule also registered an inhibition at 200 µM in assay [5] of 30%. Moreover, the EC50 in assay [4] is > 100 µM.

In the case of `O=c1[nH]c(=O)n([C@H]2CO[C@@H](CO)O2)cc1F`, the IC50 in assay [2], in assay [3] and in assay [6] was > 100 µM each time. This molecule registered an EC50 in assay [4] of 28.5 µM.
